Results published in PMC5049785, “Characterization of Novel Antimalarial Compound ACT-451840: Preclinical Assessment of Activity and Dose–Efficacy Modeling” (PLoS Medicine, 2016).

What was measured:
[1] = system: P. falciparum 7G8 (Brazil); experiment: [3H]-hypoxanthine incorporation assay, 7G8; assay type: cell-based, Plasmodium falciparum; settings: read-out: 50% inhibitory concentration (IC50); 7G8, resistance CQ, PYR, CYC; mean ± SD
[2] = system: GFP-transfected P. berghei ANKA strain; experiment: In vivo efficacy, P. berghei mouse model; set-up: species or system Plasmodium berghei in female NMRI mice; settings: for infected mice cured: no detectable parasites on Day 30, n=5
Description: In vivo efficacy against P. berghei was conducted at the Swiss TPH as previously described, with the modification that female NMRI mice from Harlan (Horst, The Netherlands) (n = 3) were infected with a GFP-transfected P. berghei ANKA strain (kindly donated by A. P. Waters and C. J. Janse, Leiden University Medical Center, The Netherlands) and parasitemia was determined using standard flow cytometry techniques. ACT-451840 was dissolved or suspended in corn oil before dosing and administered 24 h after infection (single-dose regimen) or 24, 48, and 72 h after infection (triple-dose regimen). With the single-dose regimen, blood was collected on Day 3 (72 h after infection). Samples for the triple-dose regimens were collected on Day 4 (96 h after infection). Antimalarial activity was calculated as the difference between the mean percent parasitemia for the control and treated groups expressed as a percent relative to the control group, consisting of five mice. Control mice were euthanized on Day 4 in order to prevent death typically occurring on Day 6. For the consistency in PK/PD modeling, Day 5 instead of Day 6 was considered the day of death, because treated animals were always euthanized one day before their natural death for animal welfare reasons. Animals were considered cured if there were no detectable parasites on Day 30 post-infection. To confirm the reliability of this assumption, blood from the surviving mice in curative experiments was inoculated into uninfected mice, and no parasitemia developed in these mice even after 30 d. The antimalarial efficacy is defined either as antimalarial activity or as survival: the two readouts of the P. berghei murine model.

[3] = Single compartment PK model with saturable absorption (predicted blood PK); set-up: species or system mice; settings: for Time over threshold (h), predicted: threshold 1,000 ng/mL
Description: In order to analyze the PK/PD relationship, drug exposure was predicted for all tested doses in P. berghei mouse model using a single compartment model with saturable absorption based on the concentration–time profile observed after 10, 100, and 300 mg/kg single-dose regimen in healthy mice.

[4] = single-dose regimen, oral 10 mg/kg
[5] = single-dose regimen, oral 15 mg/kg
[6] = single-dose regimen, oral 20 mg/kg
[7] = single-dose regimen, oral 25 mg/kg
[8] = single-dose regimen, oral 30 mg/kg
[9] = single-dose regimen, oral 60 mg/kg
[10] = single-dose regimen, oral 80 mg/kg
[11] = single-dose regimen, oral 100 mg/kg
[12] = single-dose regimen, oral 300 mg/kg
[13] = triple-dose regimen, oral 3 mg/kg once per day
[14] = triple-dose regimen, oral 10 mg/kg once per day
[15] = triple-dose regimen, oral 30 mg/kg once per day
[16] = triple-dose regimen, oral 50 mg/kg once per day
[17] = triple-dose regimen, oral 100 mg/kg once per day
[18] = triple-dose regimen, oral 300 mg/kg once per day
[19] = triple-dose regimen, oral 2 x 15 mg/kg (twice per day)
[20] = triple-dose regimen, oral 2 x 30 mg/kg (twice per day)
[21] = mouse PK model parameter estimate

CC(=O)N1CCN(c2ccc(CN(C(=O)/C=C/c3ccc(C(C)(C)C)cc3)[C@@H](Cc3ccccc3)C(=O)N3CCN(Cc4ccc(C#N)cc4)CC3)cc2)CC1 [ACT-451840]
IC50 [1]: 0.3 ± 0.1 nM
infected mice cured ([2]; 100 mg/kg triple-dose regimen): 20%
infected mice cured ([2]; 300 mg/kg triple-dose regimen): 100%
ED90 ([2]; oral triple-dose regimen, calculated from data in S2 Text): 13 mg/kg
Antimalarial activity (%) [2, 4]: 21.75%
Survival [2, 4]: 5.0 days
Antimalarial activity (%) [2, 5]: 39.00%
Survival [2, 5]: 5.0 days
Antimalarial activity (%) [2, 6]: 76.23%
Survival [2, 6]: 7.0 days
Antimalarial activity (%) [2, 7]: 90.29%
Survival [2, 7]: 6.7 days
Antimalarial activity (%) [2, 8]: 97.42%
Survival [2, 8]: 7.9 days
Antimalarial activity (%) [2, 9]: 99.40%
Survival [2, 9]: 13.7 days
Antimalarial activity (%) [2, 10]: 98.88%
Survival [2, 10]: 12.7 days
Antimalarial activity (%) [2, 11]: 99.19%
Survival [2, 11]: 12.4 days
Antimalarial activity (%) [2, 12]: 98.84%
Survival [2, 12]: 15.7 days
Antimalarial activity (%) [2, 13]: 0.00%
Survival [2, 13]: 6.0 days
Antimalarial activity (%) [2, 14]: 32.25%
Antimalarial activity (%) [2, 15]: 99.53%
Antimalarial activity (%) [2, 16]: 99.78%
Survival [2, 16]: 15.6 days
Antimalarial activity (%) [2, 17]: 99.84%
Survival [2, 17]: 21.8 days
Antimalarial activity (%) [2, 18]: 99.78%
Survival [2, 18]: 30.0 days
Antimalarial activity (%) [2, 19]: 99.06%
Survival [2, 19]: 9.0 days
Antimalarial activity (%) [2, 20]: 99.81%
Survival [2, 20]: 14.6 days
total AUC giving an ED90 ([3]; P. berghei model, triple-dose regimen of 13 mg/kg): 16,300 ng*h/mL
Clearance/bioavailability [3, 21]: 2.4 L/h
Concentration at half the maximal absorption [3, 21]: 64 µg/mL
Max Absorption [3, 21]: 21 µg/h/kg
Volume of distribution/bioavailability [3, 21]: 4.3 L/kg
Cmax (ng/mL), predicted [3, 4]: 617 ng/mL
Tmax (h), predicted [3, 4]: 3 h
Total AUC over the treatment period (ng/mL*h), predicted [3, 4]: 4170 ng·h/mL
Time over threshold (h), predicted [3, 4]: 0 h
Cmax (ng/mL), predicted [3, 5]: 901 ng/mL
Tmax (h), predicted [3, 5]: 3 h
Total AUC over the treatment period (ng/mL*h), predicted [3, 5]: 6260 ng·h/mL
Time over threshold (h), predicted [3, 5]: 0 h
Cmax (ng/mL), predicted [3, 6]: 1170 ng/mL
Tmax (h), predicted [3, 6]: 3 h
Total AUC over the treatment period (ng/mL*h), predicted [3, 6]: 8350 ng·h/mL
Time over threshold (h), predicted [3, 6]: 0 h
Cmax (ng/mL), predicted [3, 7]: 1420 ng/mL
Tmax (h), predicted [3, 7]: 3 h
Total AUC over the treatment period (ng/mL*h), predicted [3, 7]: 10400 ng·h/mL
Time over threshold (h), predicted [3, 7]: 0 h
Cmax (ng/mL), predicted [3, 8]: 1670 ng/mL
Tmax (h), predicted [3, 8]: 3 h
Total AUC over the treatment period (ng/mL*h), predicted [3, 8]: 12500 ng·h/mL
Time over threshold (h), predicted [3, 8]: 0 h
Cmax (ng/mL), predicted [3, 9]: 2900 ng/mL
Tmax (h), predicted [3, 9]: 4 h
Total AUC over the treatment period (ng/mL*h), predicted [3, 9]: 25100 ng·h/mL
Time over threshold (h), predicted [3, 9]: 7 h
Cmax (ng/mL), predicted [3, 10]: 3540 ng/mL
Tmax (h), predicted [3, 10]: 4 h
Total AUC over the treatment period (ng/mL*h), predicted [3, 10]: 33400 ng·h/mL
Time over threshold (h), predicted [3, 10]: 9 h
Cmax (ng/mL), predicted [3, 11]: 4090 ng/mL
Tmax (h), predicted [3, 11]: 6 h
Total AUC over the treatment period (ng/mL*h), predicted [3, 11]: 41800 ng·h/mL
Time over threshold (h), predicted [3, 11]: 11 h
Cmax (ng/mL), predicted [3, 12]: 6690 ng/mL
Tmax (h), predicted [3, 12]: 6.5 h
Total AUC over the treatment period (ng/mL*h), predicted [3, 12]: 126000 ng·h/mL
Time over threshold (h), predicted [3, 12]: 24 h
Cmax (ng/mL), predicted [3, 13]: 192 ng/mL
Tmax (h), predicted [3, 13]: 27 h
Total AUC over the treatment period (ng/mL*h), predicted [3, 13]: 3750 ng·h/mL
Time over threshold (h), predicted [3, 13]: 0 h
Cmax (ng/mL), predicted [3, 14]: 617 ng/mL
Tmax (h), predicted [3, 14]: 27 h
Total AUC over the treatment period (ng/mL*h), predicted [3, 14]: 12500 ng·h/mL
Time over threshold (h), predicted [3, 14]: 0 h
Cmax (ng/mL), predicted [3, 15]: 1,670 ng/mL
Tmax (h), predicted [3, 15]: 51 h
Total AUC over the treatment period (ng/mL*h), predicted [3, 15]: 37600 ng·h/mL
Time over threshold (h), predicted [3, 15]: 0 h
Cmax (ng/mL), predicted [3, 16]: 2530 ng/mL
Tmax (h), predicted [3, 16]: 27 h
Total AUC over the treatment period (ng/mL*h), predicted [3, 16]: 62700 ng·h/mL
Time over threshold (h), predicted [3, 16]: 16 h
Cmax (ng/mL), predicted [3, 17]: 4100 ng/mL
Tmax (h), predicted [3, 17]: 52 h
Total AUC over the treatment period (ng/mL*h), predicted [3, 17]: 125000 ng·h/mL
Time over threshold (h), predicted [3, 17]: 32 h
Cmax (ng/mL), predicted [3, 18]: 6830 ng/mL
Tmax (h), predicted [3, 18]: 54 h
Time over threshold (h), predicted [3, 18]: 72 h
Cmax (ng/mL), predicted [3, 19]: 1060 ng/mL
Tmax (h), predicted [3, 19]: 35 h
Total AUC over the treatment period (ng/mL*h), predicted [3, 19]: 37600 ng·h/mL
Time over threshold (h), predicted [3, 19]: 0 h
Cmax (ng/mL), predicted [3, 20]: 1980 ng/mL
Tmax (h), predicted [3, 20]: 59 h
Total AUC over the treatment period (ng/mL*h), predicted [3, 20]: 75200 ng·h/mL
Time over threshold (h), predicted [3, 20]: 8 h
